PubChem BioAssay (NCI)
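Method: 48-hour compound exposure of cells in 96-well plates, five concentrations, linear interpolation of endpoints. The concentration for 50% growth inhibition is given as GI50. TGI: total growth inhibition.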

What was measured:
Test in all cases: inhibition of tumour cell growth, NCI panel, 48 h
M14 melanoma = test system: M14 melanoma
UACC-62 melanoma = test system: UACC-62 melanoma
HOP-62 NSCLC = test system: HOP-62 NSCLC
BT-549 breast = test system: BT-549 breast
SK-MEL-2 melanoma = test system: SK-MEL-2 melanoma
KM12 colon = test system: KM12 colon
NCI-H23 lung = test system: NCI-H23 lung
MDA-MB-435 = test system: MDA-MB-435
HT29 colon = test system: HT29 colon
DU-145 prostate = test system: DU-145 prostate

SMILES | GI50 (M14 melanoma) [µM] | TGI (M14 melanoma) [µM] | GI50 (UACC-62 melanoma) [µM] | TGI (UACC-62 melanoma) [µM] | GI50 (HOP-62 NSCLC) [µM] | TGI (HOP-62 NSCLC) [µM] | GI50 (BT-549 breast) [µM] | TGI (BT-549 breast) [µM] | GI50 (SK-MEL-2 melanoma) [µM] | TGI (SK-MEL-2 melanoma) [µM] | GI50 (KM12 colon) [µM] | TGI (KM12 colon) [µM] | GI50 (NCI-H23 lung) [µM] | TGI (NCI-H23 lung) [µM] | GI50 (MDA-MB-435) [µM] | TGI (MDA-MB-435) [µM] | GI50 (HT29 colon) [µM] | TGI (HT29 colon) [µM] | GI50 (DU-145 prostate) [µM] | TGI (DU-145 prostate) [µM]
COc1cccc(/C=C/C(=O)c2cc3c(N)c(C(=O)Nc4cccc(Cl)c4C)sc3nc2C)c1 | 1.02 | 2.78 | 0.844 | 3.5 | 1.1 | 4.64 | 1 | 2.8 | 1.64 | 12.9 | 1.02 | 2.8 | 1.34 | 5.4 | 0.345 | 1.32 | 0.418 | 2.41 | 1.33 | 3.98
C#CC[C@H](c1nc2cc(Cl)ccc2c(=O)n1Nc1ccccc1)N(CCCN)C(=O)c1cccc(Cl)c1F | 0.3 | 1.63 | 0.636 | 2 | 0.842 | 2.23 | 0.798 | 3.33 | 0.177 | 1.29 | 0.18 | 1.63 | 0.624 | 11.2 | 0.0281 | 0.0915 | 0.337 | 1.32 | 0.215 | 0.75
